In patent US10500194B2, “Covalent small molecule DCN1 inhibitors and therapeutic methods using the same” (THE REGENTS OF THE UNIVERSITY OF MICHIGAN, priority 2017, dated 2019):

What was measured:
DCN1 [1] = molecular target: T1, DCN1 (Homo sapiens (Human), UniProt Q96GG9); assay: Competitive FP binding assay; settings: read-out: Binding affinity to DCN1 (IC50)
Procedure: The Fluorescence Polarization (FP) competitive binding assays were performed to accurately determine the binding affinities of our DCN1 inhibitors. A novel FAM labeled fluorescent probe compound (46) was designed and synthesized based on one of our potent small molecule DCN1 inhibitors. Equilibrium dissociation constants (Kd) values of 46 to both DCN1 and DCN2 proteins were determined from protein saturation experiments by monitoring the total FP values of mixtures composed with the fluorescent probe at a fixed concentration and proteins with increasing concentrations up to full saturation. Serial dilutions of proteins were mixed with 46 to a final volume of 200 μl in the assay buffer (100 mM phosphate buffer, pH=6.5, with 0.02% Tween-20 and 2% DMSO). Final probe concentration was 5 nM for both assays. Plates were incubated at room temperature for 30 minutes with gentle shaking to assure equilibrium. FP values in millipolarization units (mP) were measured using the Infinite M-1000 plate reader (Tecan U.S., Research Triangle Park, N.C.) in Microfluor 1 96-well, black, round-bottom plates (Thermo Scientific, Waltham, Mass.) at an excitation wavelength of 485 nm and an emission wavelength of 530 nm. Kd values of 46 were calculated by fitting the sigmoidal dose-dependent FP increases as a function of protein concentrations using Graphpad Prism 6.0 software (Graphpad Software, San Diego, Calif.).
(§1) Human DCN1 (residues 58-259) were cloned into a pDEST17 plasmid containing an N-terminal His6 tag. DCN2 (residues 62-259), DCN3 (residues 86-304), DCN4 (residues 102-292) and DCN5 (residues 47-237) were cloned into an N-terminal His6-TEV expression vector. Pure proteins were derived from the same expression and purification protocols. Plasmids were transformed into Rosetta2 cells, the cells were grown in Terrific Broth at 37° C. to an O.D.600>1.0 and induced with 0.4 mM Isopropyl β-D-1-thiogalactopyranoside overnight at 20° C. The pelleted cells were resuspended in lysis buffer containing 25 mM Tris-HCl, pH 7.5, 200 mM NaCl and protease inhibitors, sonicated and centrifuged at 34,000×g for 45 minutes to remove debris. Cleared lysate was incubated with Ni-NTA resin (Qiagen) prewashed with lysis buffer, for 1 hr at 4° C. The matrix was loaded into a column then washed with 25 mM Tris-HCl, pH 7.5, 200 mM NaCl and 10 mM imidazole. Protein was eluted with 25 mM Tris-HCl, pH 7.5, 200 mM NaCl and 300 mM imidazole, concentrated and applied to a Superdex 75 (GE Healthcare) column pre-equilibrated with 25 mM Tris pH 7.5, 200 mM NaCl and 1 mM DTT. For DCN2-5, the N-terminal His6 tag was removed prior to gel filtration. Tag removal was achieved through incubation with TEV protease during overnight dialysis against 25 mM Tris pH 7.5, 200 mM NaCl and 1 mM DTT and a second Ni-NTA column. DCN2-5 proteins were stored at −80° C. in 1 mg/mL fractions containing 5% glycerol. The uncleaved DCN1 protein was stored at −80° C. without glycerol.

DCN1 [2] = molecular target: T1, DCN1; assay: Mass spectroscopy of DCN1 protein incubations; type: binding; settings: for ablation of the parent peak in the mass spectrum / major new peak (protein-inhibitor adduct) / mass of new peak (DCN1 plus inhibitor, loss of morpholinyl group): DCN1 380 μM, 1.2 fold excess of inhibitor, 4° C. overnight, Q-TOF; for difference from DCN1 Apo-protein mass: FIG. 2; for formation of a covalent bond with DCN1 protein: FIG. 2, mass-spectroscopic analyses
Procedure: as §1
Recombinant DCN1 protein (380 μM) in 25 mM Tris 7.5, 200 mM NaCl, 1 mM DTT buffer was incubated with a 1.2 fold excess of selected DCN1 inhibitors at 4° C. for overnight. The reaction mixture was diluted with tenfold with water, and the protein was analyzed by Q-TOF mass spectroscopy. DCN1 untreated, or treated with previously described non-covalent inhibitors produced an isotope deconvoluted peak at 26.085.75 amus. Incubation under the described conditions with Examples 4, 7 and 9 led to 95-99% ablation of the parent peak in the mass spectrum, with a major (>90%) new peak appearing at 26588.96 amu (Dalton) for Example 4, 26604.34 amu for Example 7, and 26596.18 amu for Example 9. In each case this corresponds to addition of the inhibitor to the protein, coupled with the loss of the morpholinyl group, from the initial Michael adduct between the protein and the small molecule.

[3] = test system: neddylation of cullin 3 and NRF2 protein in HepG2 cells; assay: Western blotting of cullin neddylation and NRF2 in HepG2 cells; type: cell-based; settings: 20 h, compared with non-covalent inhibitor B
Procedure: HepG2 cells were treated as indicated concentrations for 20 h, NRF2, Cullin 1, and Cullin 3 proteins were examined by western blotting. GAPDH was used as a loading control.
Treated cells were lysed by RIPA buffer supplemented with protease inhibitor. The expression level of indicated proteins was examined by western blotting analysis. GAPDH was used as a loading control. Antibodies were purchased: Cullin 1 (sc-11384), Cullin2 (sc-10781), CullinS (sc-13014) and Cullin7 (sc-134565) from Santa Cruz Biotech. (Santa Cruz, Calif.); Cullin 4A (PA5-14542), Cullin 4B (PA5-35239), Cullin9 (PA5-20277), DCN2 (DCUNID2, PA5-31607) and DCN3 (DCUNID3, PA5-44000) from ThermoFisher Scientific (Wayne, Mich.); Cullin 3 (2759), NRF2 (12721), HO-1 (70081), NQO1 (3187), Cyclin E (4129), Bim (2819), Keap1 (8047) and UBC12 (4913) from Cell Signaling Technology (Boston, Mass.); DCN1 (GWB-E3D700) from GenWay Biotech (San Diego, Calif.). Results are representative of three independent experiments.

Nrf2 protein = assay: Effect of covalent DCN1 inhibitors on Nrf2 protein level in mouse liver; type: in vivo; settings: single dose 25 mg/kg IP, C57BL/6 male mice, western blotting
Procedure: Liver tissues harvested from C57BL/6 male mice treated with Example 9 (DI-1548) at 25 mg/kg via intraperitoneal (IP) injection were lysed with RIAP buffer. The expression level of Nrf2 protein was examined by western blotting. GAPDH was used a loading control.
The effect of several representative covalent DCN1 inhibitors (Examples 9, 21 and 22) on the level of Nrf2 protein in mouse liver was examined. Mice were administered with a single dose of Example 9 (DI-1548), Example 21 (DI-1859) or Example 22 (DI-1860) at 25 mg/kg, or phosphate-buffered saline (PBS), all via intraperitoneal (IP) injection. Mice were sacrificed at different time points and liver tissues were harvested for western blotting analysis for Nrf2 protein level. The data are shown in FIGS. 5, 6 and 7, respectively.

[4] = test system: APAP-induced liver injury; assay: Protection of mice from acetaminophen-induced liver injury (blood ALT activity); type: in vivo
Procedure: To induce acute liver injury, mice were administered a large dose (400 mg/kg) of APAP via intraperitoneal (I.P.) injection and were sacrificed 48 hr later. To examine the protective effect of DI-1859 (pretreatment), animals were I.P. injected with DI-1859 for three consecutive days (one day before APAP injection, three hours before APAP injection and a third dose on the next day after APAP injection). To examine the restorative effect of DI-1859 (post-treatment), mice were treated with DI-1859 three hours after APAP administration followed by two additional doses on the following two days. Two control groups of mice were treated with phosphate-buffered saline (PBS) or DI-1859, respectively. Blood sample collection was performed on each day.
The activity of alanine aminotransferase (ALT) in blood is a commonly used measurement clinically as a part of a diagnostic evaluation of liver injury, to determine liver health. Therefore, the blood ALT activity was measured using an ALT reagent set (Pointe Scientific Inc., Canton, Mich.). […] Furthermore, post-treatment of APAP with DI-1859 at 50 mg/kg reduces the APAP-induced elevated ALT level by approximately 50%.

T1 sequence (Q96GG9 58-259): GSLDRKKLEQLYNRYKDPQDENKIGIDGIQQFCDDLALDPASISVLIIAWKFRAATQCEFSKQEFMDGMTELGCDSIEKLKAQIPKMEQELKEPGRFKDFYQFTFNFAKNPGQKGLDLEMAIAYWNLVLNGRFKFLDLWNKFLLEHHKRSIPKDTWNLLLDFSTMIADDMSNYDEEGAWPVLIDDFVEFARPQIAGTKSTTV

Structure (SMILES)	IC50 (DCN1 [1]) [nM]	ablation of the parent peak in the mass spectrum (DCN1 [2])	major new peak (protein-inhibitor adduct) (DCN1 [2]) [%]	mass of new peak (DCN1 plus inhibitor, loss of morpholinyl group) (DCN1 [2]) [amu]	difference from DCN1 Apo-protein mass (DCN1 [2]) [Da]	formation of a covalent bond with DCN1 protein (DCN1 [2])	level of Nrf2 protein in mouse liver tissue (Nrf2 protein)	also measured
C=C(CN1CCOCC1)C(=O)NC[C@@H](NC(=O)[C@H](Cc1nc2ccc(Cl)cc2s1)NC(=O)CC)C1CCCCC1 [Example 4, N—((S)-2-((S)-3-(6-chlorobenzo[d]thiazol-2-yl)-2-propionamidopropanamido)-2-cyclohexylethyl)-2-(morpholinomethyl)acrylamide]	41.6	95-99%	> 90	26588.96	503.21	formation of a covalent bond		
C=C(CN1CCOCC1)C(=O)NC[C@H](Cc1ccccc1)NC(=O)[C@H](Cc1nc2ccc(C(C)C)cc2s1)NC(=O)CC [Example 7, N—((S)-2-((S)-3-(6-prop-2-ylbenzo[d]thiazol-2-yl)-2-propionamidopropanamido)-3-phenylpropyl)-2-(morpholinomethyl)acrylamide]	37.4	95-99%	> 90	26604.34	518.59	formation of a covalent bond		
C=C(CN1CCOCC1)C(=O)NC[C@@H](NC(=O)[C@H](Cc1nc2ccc(C(C)C)cc2s1)NC(=O)CC)C1CCCCC1 [Example 9, N—((S)-2-((S)-3-(6-prop-2-ypbenzo[d]thiazol-2-yl)-2-propionamidopropanamido)-2-cyclohexylethyl)-2-(morpholinomethyl)acrylamide]	66.5	95-99%	> 90	26596.18	510.81	formation of a covalent bond	effectively increases	increasing the level of NRF2 protein [3]: much stronger biological activity; inhibition of neddylation of cullin 3 [3]: much stronger biological activity
C=C(CN(C)C)C(=O)NC[C@@H](NC(=O)[C@H](Cc1nc2ccc(C(C)C)cc2s1)NC(=O)CC)C1CCCCC1 [Example 21, N—((S)-2-cyclohexyl-2-((S)-3-(6-isopropylbenzo[d]thiazol-2-yl)-2-propionamidopropanamido)ethyl)-2-((dimethylamino)methyl)acrylamide]	< 150						effectively increases	reduction of APAP-induced elevated ALT level, post-treatment ([4]; APAP 400 mg/kg I.P., post-treatment at 50 mg/kg): approximately 50%; elevation of ALT activity by APAP, pretreatment ([4]; APAP 400 mg/kg I.P., pretreatment at 50 mg/kg): completely prevents; elevated ALT activity induced by APAP, pretreatment ([4]; APAP 400 mg/kg I.P., pretreatment, dose-dependent): effectively reduces; APAP-induced alanine aminotransferase (ALT) increase ([4]; pre- or post-treatment, APAP, FIG. 8): effectively blocks or reduces
C=C(CN(CC)CC)C(=O)NC[C@@H](NC(=O)[C@H](Cc1nc2ccc(C(C)C)cc2s1)NC(=O)CC)C1CCCCC1 [Example 22, N—((S)-2-cyclohexyl-2-((S)-3-(6-isopropylbenzo[d]thiazol-2-yl)-2-propionamidopropanamido)ethyl)-2-((diethylamino)methyl)acrylamide]	< 150						effectively increases	
CCC(=O)N[C@@H](Cc1nc2ccc(C(C)C)cc2s1)C(=O)N[C@H](CNC(=O)CCl)C1CCCCC1 [Example 38, (S)—N—((S)-2-(2-chloroacetamido)-1-cyclohexylethyl)-3-(6-isopropylbenzo[d]thiazol-2-yl)-2-propionamidopropanamide]	< 150							
CCC(=O)N[C@@H](Cc1nc2ccc(C(C)C)cc2s1)C(=O)N[C@H](CNC(=O)/C=C/CN1CCOCC1)C1CCCCC1 [Example 39, (E)-N—((S)-2-cyclohexyl-2-((S)-3-(6-isopropylbenzo[d]thiazol-2-yl)-2-propionamidopropanamido)ethyl)-4-morpholinobut-2-enamide]	< 150							
